Tests used:
[1] = biological target: T1, PARK7 (Homo sapiens, UniProt Q99497); assay: High-throughput FP screen of covalent fragment library with JYQ-107; assay type: binding; parameters: GST (N, cleaved yes); made in house; host or cells: E. coli BL21(DE3) Rosetta2; settings: HTS, 100 μM compound, PARK7 0.2 μM, 2 h preincubation, JYQ-107 20 nM, 1536-well
T1 sequence (Q99497 1-189): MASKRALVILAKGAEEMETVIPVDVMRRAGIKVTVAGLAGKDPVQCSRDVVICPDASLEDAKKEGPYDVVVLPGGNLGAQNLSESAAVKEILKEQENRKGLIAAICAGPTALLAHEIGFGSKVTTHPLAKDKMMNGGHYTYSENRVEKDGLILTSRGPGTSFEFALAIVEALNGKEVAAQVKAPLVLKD
Procedure: The screen was conducted using the conditions as described above in 1536-well plates (Corning 3724) with a reaction volume of 8 μL per well. The compound library containing 7887 covalent fragments was purchased at Enamine Ltd. and received as 100 mM DMSO stocks in 384 well LDV Echo plates (Labcyte LP-0200). Stock solutions of 0.26 μM PARK7 and 80 nM JYQ-107 were prepared. Using a Labcyte Echo550 acoustic dispenser, 8 nL of the DMSO stock solution of the library compounds was transferred from the source plates into the empty 1536-well screening plates to obtain a 100 μM final compound concentration. Next, PARK7 (6 μL, final concentration 0.2 μM) was dispensed using a Biotek MultiflowFX liquid dispenser and incubated for 2 h, followed by dispensing the probe JYQ-107 (2 μL, final concentration 20 nM). After 2 h incubation, the FP signal was recorded on a BMG Labtech PHERAstar plate reader (λex/em 480/520 nm). The relative loss of FP signal compared with reference controls was used to calculate the remaining enzyme activity.

[2] = biological target: T1, PARK7; assay: FP assay with Rhodamine110 probe JYQ-107 (IC50 and hit validation); assay type: binding; parameters: GST (N, cleaved yes); made in house; host or cells: E. coli BL21(DE3) Rosetta2; settings: PARK7 0.2 μM, 1 h preincubation, JYQ-107 20 nM; for inhibition at 12.5 µM: 12.5 µM compound, read-out: FP assay %Inhibiton (12.5 µM); for inhibition at 37.5 µM: 37.5 µM compound, read-out: FP assay %Inhibiton (37.5 µM); for inhibition at 100 µM: 100 µM compound, read-out: FP assay %Inhibiton (100 µM)
Procedure: The assay was performed using the conditions as described above with a reaction volume of 20 μL per well in triplicate. Stock solutions of JYQ-88 of 1 and 0.1 mM were prepared. […] The FP signal was monitored with a BMG Labtech PHERAstar plate reader (λex/em 480/520 nm) for 2 h.
The validation was performed using the conditions as described above with a reaction volume of 20 μL per well in triplicate. […] The FP signal was monitored with a BMG Labtech PHERAstar plate reader (λex/em 480/520 nm) for 2 h. The relative loss of FP signal compared with reference controls was used to calculate the remaining enzyme activity. Inhibition percentage of these 40 compounds was plotted as a heatmap using GraphPad Prism 9.0.1 software. Color gradients indicate inhibition percentage, no inhibiton (white) and full inhibition (blue).

[3] = biological target: T1, PARK7; assay: DiFMUAc PARK7 activity assay; assay type: biochemical; parameters: GST (N, cleaved yes); made in house; host or cells: E. coli BL21(DE3) Rosetta2; settings: PARK7 0.1 μM, 2 h preincubation, DiFMUAc 300 μM; for inhibition at 12.5 µM: 12.5 µM compound, read-out: DiFMuAc assay %Inhibiton (12.5 µM); for inhibition at 37.5 µM: 37.5 µM compound, read-out: DiFMuAc assay %Inhibiton (37.5 µM); for inhibition at 100 µM: 100 µM compound, read-out: DiFMuAc assay %Inhibiton (100 µM)
Procedure: Compounds were transferred using a Labcyte Echo550 acoustic dispenser to obtain a 12-point serial dilution of 0.001 to 100 μM. Next, PARK7 (15 μL, final concentration of 0.1 μM) was dispensed with a Biotek MultiFlowFX liquid dispenser and incubated for 1 h, followed by dispensing the substrate DiFMUAc (5 μL, final concentration of 300 μM). The fluorescence intensity (FI) signal was monitored with a BMG Labtech PHERAstar plate reader (λex/em 350/450 nm) for 1 h.
The validation was performed in the PBS buffer with a reaction volume of 20 μL per well in triplicate. […] Next, PARK7 (15 μL, final concentration 0.1 μM) was dispensed with a Biotek MultiFlowFX liquid dispenser and incubated for 2 h, followed by dispensing the substrate DiFMUAc (5 μL, final concentration 300 μM). The FI signal was monitored with a BMG Labtech PHERAstar plate reader (λex/em 350/450 nm) for 1 h. The increase of FI signal compared with reference controls was used to calculate the remaining enzyme activity. The inhibition percentage of these 22 compounds was plotted as a heatmap using GraphPad Prism 9.0.1 software. Color gradients indicate inhibition percentage, no inhibiton (white) and full inhibition (blue).

[4] = biological target: T1, PARK7; assay: Gel-based competition assay in HEK293T cell lysate with probe JYQ-92; assay type: biochemical; parameters: GST (N, cleaved yes); made in house; host or cells: E. coli BL21(DE3) Rosetta2; settings: fragment 0.1–50 μM 2 h 37 °C, then JYQ-92 1 μM 30 min, Figure 6E
From the text: We next assessed whether we could measure the inhibitory activity of an inhibitor against PARK7 in a cell lysate using JYQ-92 to label the remaining activity of PARK7. […] The disappearance of the labeling band is a measure for inhibition.

[5] = biological target: T2, UCHL1 (Homo sapiens, UniProt P09936); assay: UCHL1 activity assay (Ub-Rho-Morpholine or Ub-AMC substrate); assay type: biochemical; settings: UCHL1 1 nM, 1 h preincubation; read-out: UbRhoMP assay UCHL1 IC50
T2 sequence (P09936 1-223): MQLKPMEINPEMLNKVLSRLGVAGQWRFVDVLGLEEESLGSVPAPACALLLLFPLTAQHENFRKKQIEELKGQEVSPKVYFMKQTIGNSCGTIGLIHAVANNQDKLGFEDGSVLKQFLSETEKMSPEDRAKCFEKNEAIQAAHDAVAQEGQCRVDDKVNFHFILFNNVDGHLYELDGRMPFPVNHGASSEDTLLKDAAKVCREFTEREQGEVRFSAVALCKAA
Procedure: The assay was performed in a buffer containing 50 mM Tris·HCl, 100 mM NaCl at pH 7.5, 2.0 mM cysteine, 1 mg/mL 3-[(3-cholamidopropyl)dimethylammonio]propanesulfonic acid (CHAPS), and 0.5 mg/mL bovine serum albumin and conducted in a 384-well plate (Corning 3820) with a reaction volume 20 μL in triplicate. The compounds were dissolved in DMSO as 10, 1, and 0.1 mM stock solutions and were transferred to obtain a 12-point serial dilution of 0.05 to 200 μM. Next, UCHL1 (15 μL, final concentration of 1 nM) was dispensed with a Biotek MultiFlowFX liquid dispenser and incubated for 1 h, followed by dispensing the substrate Ub-Rho-Morpholine or Ub-AMC (5 μL, final concentration of 400 nM). The FI signal was monitored with a BMG Labtech PHERAstar plate reader (λex/em 487/535 nm or λex/em 350/450 nm) for 1 h. N-Ethylmaleimide (NEM, 10 mM) was used as a positive control (100% inhibition), and DMSO was used as a negative control (0% inhibition). All samples were normalized to the positive and negative controls and plotted against the inhibitor concentrations (in μM) using the built-in equation “[inhibitor] vs response – variable slope (four parameters), least-squares fit” with constraints “Bottom = 0” and “Top = 100” in GraphPad Prism 9.0.1 software to obtain the IC50 values.

[6] = biological target: T1, PARK7; assay: Probe labeling of purified recombinant PARK7 (SDS-PAGE, fluorescence scanning); assay type: binding; parameters: GST (N, cleaved yes); made in house; host or cells: E. coli BL21(DE3) Rosetta2; settings: purified PARK7 1 μM, 1 h 37 °C; Figure 4A
From the text: PARK7 inhibitor JYQ-88 was further converted into activity-based probes by installing SulfoCy5, Rhodamine110, or BodipyFL. We took advantage of the azide moiety in JYQ-88 and conjugated alkyne versions of these dyes using the copper(I)-catalyzed azide alkyne cycloaddition (CuAAC) to obtain compounds JYQ-92, JYQ-93, and JYQ-107 (Scheme 2). We next investigated the ability of the probes to label and visualize PARK7. […] The SulfoCy5 probe JYQ-92 and Rhodamine110 probe JYQ-107 labeled PARK7 already at 1 μM, while the BodipyFL probe JYQ-93 was less efficient than the other probes as PARK7 labeling was only observed from 5 μM.
All the labeling assays were performed in Tris buffer (50 mM Tris–HCl, 150 mM NaCl, 2 mM TCEP, pH 7.5). For labeling with the 8RK59 probe, 1 μM final concentrations of UCHL1 and PARK7 were individually or together incubated with 2 μM final concentrations of 8RK59 for 30 min at 37 °C, followed by protein visualization. For labeling with JYQ-92, JYQ-93, and JYQ-107, 1 μM final concentration of PARK7 was incubated with different concentrations (0, 0.1, 0.5, 1, 2, 5, and 10 μM) of the indicated probes for 1 h at 37 °C. […] These samples were resolved by SDS-PAGE using precast Bis-Tris gels (Invitrogen, NuPAGE) with MES SDS running buffer (Novex, NuPAGE).

[7] = tested on: DUBs; assay: DUB activity profiling in HEK293T cell lysate with general DUB probe Rho-Ub-PA; assay type: biochemical; settings: compound 5 μM 1 h 37 °C, then Rho-Ub-PA 30 min, Figure S5
Procedure: Due to the structural similarity of PARK7 inhibitor JYQ-88 and UCHL1 inhibitor 8RK64 and the fact that many cyanimide-containing compounds have been identified as DUB inhibitors,[35],[37] we investigated the inhibitory potential of JYQ-88 and JYQ-92 toward DUBs. After treating the HEK293T cell lysate with JYQ-88 and JYQ-92, along with UCHL1 inhibitors, 6RK73 and 8RK64 as controls,[38] the remaining activity of DUBs was determined using the general DUB probe Rho-Ub-PA (Figure S5).[39]
Figure S5. Fluorescence labeling of DUBs to investigate their remaining activity by Rh-Ub-
PA after the treatment with PARK7 inhibitor JYQ-88 and probe JYQ-92. UCHL1 inhibitors,
6RK73 and 8RK64, were used as a control. HEK293T cell lysate was treated with 5 μM final
MOPS SDS running buffer (Novex, NuPAGE) and visualized by fluorescence scanning on a
Typhoon FLA 9500 (GE Healthcare Life Sciences) using a Rhodamine channel (λex/em
(1 picture or pasted object on this page, not shown here)

## NCC1CCN(C(=O)C=Cc2ccc(Cl)s2)C1 (stereo not drawn) [Z2242910917, 1-[3-(aminomethyl)pyrrolidin-1-yl]-3-(5-chlorothiophen-2-yl)prop-2-en-1-one]
[1]
  Inhibition %: -0.36%

## O=C(O)c1csc(C(=O)CCl)c1 [Z763366298]
[2]
  inhibition at 12.5 µM: 100%
  inhibition at 37.5 µM: 100%
  inhibition at 100 µM: 100%
[3]
  inhibition at 12.5 µM: 97.9%
  inhibition at 37.5 µM: 97.6%
  inhibition at 100 µM: 97.3%
[4]
  Ability to inhibit PARK7 in a cell lysate: confirmed

## CCC(C)c1ccc(NC(=O)CCl)cc1 (stereo not drawn) [Z56886389]
[2]
  inhibition at 12.5 µM: 100%
  inhibition at 37.5 µM: 100%
  inhibition at 100 µM: 100%
[3]
  inhibition at 12.5 µM: 95.8%
  inhibition at 37.5 µM: 95.2%
  inhibition at 100 µM: 97.1%
[4]
  Ability to inhibit PARK7 in a cell lysate: confirmed

## C#CC(=O)N1CCc2cc(C(=O)O)ccc21 [Z3227873366, 1-(prop-2-ynoyl)-2,3-dihydro-1H-indole-5-carboxylic acid]
[1]
  Inhibition %: 1.76%

## CC1=CC(C)=[N+]2C1=C(CCCCc1cn(CC(=O)N3CCc4nc(NC(=O)[C@@H]5CCN(C#N)C5)sc4C3)nn1)c1c(C)cc(C)n1[B-]2(F)F [JYQ-93]
[5]
  IC50: 23 µM
[6]
  Probe concentration from which PARK7 labeling was observed: 5 µM

## N#CC=Cc1cccc2cccnc12 [Z3236183481, 3-(quinolin-8-yl)prop-2-enenitrile]
[1]
  Inhibition %: -0.97%

## O=C(NC1CCN(Cc2ccccc2)CC1)n1ccnc1 [Z319217184, N-(1-benzylpiperidin-4-yl)-1H-imidazole-1-carboxamide]
[1]
  Inhibition %: 1.56%

## N#CN1CC[C@H](C(=O)Nc2ncc(N3CCOCC3)s2)C1 [6RK73, reference compound]
[7]
  Effect on remaining DUB activity (Rho-Ub-PA labeled bands): disappearance of the UCHL1 band
